Data published in patent US6121241A, “Anticoagulant peptide aldehyde derivatives” (Gyogyszerkutato Intezet Kft., priority 1996, dated 2000).
Where two headings read alike, the source gives them in different places.

Key:
thrombin time (TT) = experiment: Ex vivo TT in citrate plasma of rabbits after p.o. dosing; design: species or system New Zealand white rabbits; conditions: p.o. 5 mg/kg
Protocol: The anticoagulant and platelet aggregation inhibiting effect of the compounds of general formula (I) was studied In New Zealand white rabbits ex vivo according to D. Bagdy et al [Thromb. Haemost 67. 357 (1992). The compounds were dissolved in buffered isotonic saline solution and administered i.v. (0,04-5.0 mg/kg) or by infusion (0.25-5.0 mg/kg/h) or subcutaneously (0.5-6.0 mg/kg) or p.o. (2.5-20 mg/kg). The effect of the compounds was detectable already within 30 minutes following p.o. administration, peak values were attained after 60-180 minutes and the therapeutic level was maintained dose-dependently for 3→6 hours.
The in vivo effect of D-cHga Pro-Arg-H (1) is presented in detail in Tables 5 and 6. The corresponding values of C1 are listed as controls. The compound was administered p.o. in doses of 5 mg/kg. The blood samples drawn from the caudal vein in every 30-60 minutes were analyzed. The whole blood clotting time (WBCT) and the inhibition of thrombin-induced blood platelet aggregation (PAI) were determined. The activated partial thromboplastin time (APTT) and the thrombin time (TT) in the citrate plasma obtained from the blood sample were also measured. The APTT and TT values are compiled in Table 5 and the WBCT and PAI values in Table 6.

thrombin = biological target: T1, thrombin (Homo sapiens, UniProt P00734); experiment: Thrombin time (TT) plasma clotting test; format: biochemical
T1 construct: The isolated active factor (e.g. thrombin, fXa) and its chromogen or fluorogen peptide-amide substrate are reacted
Protocol: (§1) Anticoagutant activity (i.e. inhibition of the proteolytic reactions in the process) is measured by anticoagulant tests, e.g. by the thrombin time (TT), activated partial thromboplastin time (APTT) and prothrombin time (PT) tests [E. J. W. Bovie et al; Mayo Clinic Laboratory Manual of Hemostasis; W. B. Sanuders Co., Philadelphia (1971)]. Plasma, inhibited in spontaneous coagulation, e.g. citrate-plasma, is made to coagulate and the required coagulation time is measured. Upon the action of anticoagulants the coagulation time is prolonged proportionally to the inhibition of the reaction(s) in the process. The anticoagulant effect can be characterized by the substance concentration required to double the coagulation time compared to the control (IC50). The effect of anticoagulants on individual coagulant proteases is measured by the amidolytic method [R. Lottenberg et al., Methods in Enzymol. 80, 341 (1981); G. Cleason, Blood Coagulation and Fibrinolysis 5, 411 (1994)]. The isolated active factor (e.g. thrombin, fXa) and its chromogen or fluorogen peptide-amide substrate are reacted in the presence or absence of the inhibitor, resp. The enzyme inhibiting action is characterized by the inhibitory constant (IC50) measured during amidolysis.
In the TT test coagulation is initiated by the thrombin added to the citrate plasma. In the system 22 pmol/mL of thrombin is functioning and in the presence of plasma components its inhibition can be measured on the fibrinogen (one of the natural substrates of thrombin) present In the APTT and PT tests the full coagulation process is made to proceed. Depending on the activator fX is activated by the extrinsic or intrinsic pathway. The generated fXa activates prothrombin to thrombin which, in turn, triggers plasma coagulation. In the test the coagulation time is prolonged if the enzymes or one of them is inhibited by the inhibitor. In the APTT and PT tests at most 40 pmole/ml Xa is generated (this is the full amount of factor X present in both systems) while 150 pmole/ml (APTT) and 350 pmole/ml (PT) are generated from thrombin [B Kaiser et al., Thromb. Res. 65, 157 (1992)].
(§2) The in vitro anticoagulant effect of the compounds of general formula (I) was measured by the prothrombin time (PT), activated partial thromboplastin time (APTT) and thrombin time (TT) tests [D. Bagdy et at., Thromb. Haemost. 67, 325 (1992)]. The Xa-factor-inhibiting effect of the compounds was also determined by using the Bz-Ile-Glu-Gly-Arg-pNA chromogen substrate (see method M6).

[1] = biological target: T2, fibrin-gel bound thrombin (Homo sapiens, UniProt P00734); experiment: Inhibition of thrombin bound to fibrin-gel (methods M4, M5); format: biochemical; conditions: Tos-Gly-Pro-Arg-pNA substrate
T2 construct: Here prothrombin is converted to thrombin; purchased SIGMA
Protocol: The plasma clot was obtained by the recalcification of platelet-rich human citrate plasma and fibrin gel by the coagulation of human fibrinogen with human thrombin Z-D-Arg-Gly-Arg-pNA and Tos Gly-Pro-Arg-pNA were used as substrates for measuring the activity of factor Xa and thrombin (methods M1-M5).
Preparation of Fibrin-Gel
a) 200 μL of 6 mg/mL human fibrinogen (SIGMA), 25 μL of 25 NIH U/mL human thrombin (SIGMA) and 40 μL of 100 mM calcium chloride solution are placed in each reaction vessel and the mixtures are stored for one hour at 20-22° C. The fibrin formed is rinsed mildly with 3×2 ml of isotonic saline solution followed by sedimentation to remove the thrombin content of the solution. The efficacy of rinsing is controlled by the process described in Method M1, point c).
Assay of the Inhibition of Thrombin Bound to Fibrin-Gel
a) 0.1-1.0-10 and 100 μg/ml solutions are prepared with Hepes/NaCl buffer (0.01 M Hepes and 0.1 M sodium chloride, pH=7.4).
b) Thereafter the procedure described in Method M3, point b) is followed.

human factor Xa = biological target: T3, human factor Xa (Homo sapiens, UniProt P00742); experiment: Inhibition of the amidolytic effect of factor Xa in solution on Bz-Ile-Glu-Gly-Arg-pNA (method M6); format: biochemical; conditions: Table 2; Bz-Ile-Glu-Gly-Arg-pNA, isolated human factor Xa; read-out: B: IC50 (factor Xa inhibiting effect)
T3 construct: purchased SIGMA
T3 sequence (P00742 235-488 limits assumed): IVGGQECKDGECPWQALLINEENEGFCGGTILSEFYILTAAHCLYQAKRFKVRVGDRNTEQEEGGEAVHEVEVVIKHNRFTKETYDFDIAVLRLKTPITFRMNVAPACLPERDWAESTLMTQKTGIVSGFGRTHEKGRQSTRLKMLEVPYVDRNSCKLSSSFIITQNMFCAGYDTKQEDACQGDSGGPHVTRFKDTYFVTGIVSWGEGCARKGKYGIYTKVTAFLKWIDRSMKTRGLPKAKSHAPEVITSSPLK
T3 sequence (P00742 41-179 partner limits assumed): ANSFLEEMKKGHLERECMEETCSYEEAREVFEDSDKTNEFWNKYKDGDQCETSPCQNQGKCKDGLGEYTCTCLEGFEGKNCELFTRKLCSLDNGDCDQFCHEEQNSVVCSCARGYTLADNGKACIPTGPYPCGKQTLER
Protocol: as §1, §2
Assay of the Inhibition of Factor Xa in Solution on a 96-well Microtiter Plate
a) 1.3 U/mL factor Xa (human, SIGMA), 0.1-1.0-10 and 100 μg/mL solutions in phosphate buffer (0.1 M sodium phosphate and 0.05 M sodium chloride, pH 7.4) of the peptide inhibitors and […] solutions of the substrate Bz-Ile-Glu-Gly-Arg-pNA in distilled water are used.
b) Three reaction mixtures are prepared from the control and each peptide solution. 30 μL each of the peptide and the buffer, serving as control, 30 μL factor Xa, 90 μL butter and 150 μL substrate are placed in the wells of the plate, then after 10 minutes the extinction values are read at 405 nm The procedure is continued as described in Method M2, point c).

[2] = Table 2, concentration doubling clotting time, read-out: A: IC50, TT

SMILES | TT relative clotting time (thrombin time (TT); 0 min) | TT relative clotting time (thrombin time (TT); 30 min) | TT relative clotting time (thrombin time (TT); 45 min) | TT relative clotting time (thrombin time (TT); 60 min) | TT relative clotting time (thrombin time (TT); 90 min) | TT relative clotting time (thrombin time (TT); 120 min) | TT relative clotting time (thrombin time (TT); 180 min) | TT relative clotting time (thrombin time (TT); 240 min) | IC50 (thrombin; Table 1, concentration doubling clotting time, read-out: B: IC50, TT) | IC50 (thrombin; [2]) | IC50 (thrombin; read-out: concentration doubling the clotting time in the TT test) | IC50 [1] | IC50 (human factor Xa) | TT relative clotting time (thrombin time (TT); 300 min)
CN[C@H](Cc1ccccc1)C(=O)N1CCC[C@H]1C(=O)N[C@H](C=O)CCCNC(=N)N [Compound C1, D-MePhe-Pro-Arg-H] | 1.0 | 1.52 ± 0.17 | 2.50 ± 0.44 | 4.75 ± 1.38 | 10.50 ± 5.49 | 5.51 ± 3.59 | 2.05 ± 0.38 | 1.81 ± 0.39 | 90 nM | 90 nM | 87 nM | 300 nM | 9130 nM | –
N=C(N)NCCC[C@@H](C=O)NC(=O)[C@H]1CCCN1C(=O)C(O)C1CCCCCC1.N=C(N)NCCC[C@@H](C=O)NC(=O)[C@H]1CCCN1C(=O)C(O)C1CCCCCC1.O=S(=O)(O)O (stereo partly drawn) [Compound 1, D-2-Cycloheptyl-2-hydroxyacetyl-L-prolyl-L-arginine aldehyde hemisulfate] | 1.0 | 10.57 ± 5.98 | 10.89 ± 5.89 | 11.67 ± 5.69 | 14.00 ± 6.48 | 10.60 ± 4.22 | 2.22 ± 0.71 | 1.23 ± 0.07 | – | 110 nM | – | 210 nM | 63 nM | 1.13 ± 0.05
